Test results: article PMC4016240, “Flavonoids with α-glucosidase inhibitory activities and their contents in the leaves of Morus atropurpurea” (Chinese Medicine, 2013)

Target: T1, yeast α-glucosidase (Saccharomyces cerevisiae, UniProt P53341)
T1 construct: purchased Sigma-Aldrich
Assay: microplate-based α-glucosidase inhibition assay (pNPG substrate)
Type: biochemical, Saccharomyces cerevisias
Settings: pH 6.8, 37°C, 30 min, means ± SD, n = 3
From the text: Acetonitrile (HPLC grade) and acetic acid (HPLC grade) were purchased from Merck (Darmstadt, Germany), and methanol (AR grade) was purchased from Kaitong (Tianjin, China). Sodium carbonate was purchased from BDH Laboratory Supplies (Poole, Dorset, UK). α-Glucosidase type 1 ([…] from Saccharomyces cerevisias) and 4-nitrophenyl α-D-glucopyranoside (pNPG) were purchased from Sigma-Aldrich (St. Louis, MO, USA). Ultra-pure water was purified using a Millipore Milli Q-Plus system (Billerica, MA, USA). […] Silica gel (200–300 mesh) was purchased from Qingdao Haiyang Chemical Co. Ltd. (Qingdao, China). Macroporous absorption resin (D101) was purchased from Haiguang Chemical Industrial Co. (Tianjin, China). Sephadex LH-20 was purchased from GE Healthcare Bio-Sciences AB (Uppsala, Sweden), and the Millex® nylon membrane syringe filter was purchased from Millipore (Billerica, MA, USA).
The yeast α-glucosidase inhibitory activities of the four flavonoids were determined by a microplate-based method with a slight modification. […] The 4-nitrophenol absorption was measured at 405 nm. […] The inhibitory activity was calculated using the following formula: […]
where AS, ASB, AC, and ACB are the absorbances of sample, sample blank, control, and control blank, respectively.

T1 sequence (P53341 whole entry): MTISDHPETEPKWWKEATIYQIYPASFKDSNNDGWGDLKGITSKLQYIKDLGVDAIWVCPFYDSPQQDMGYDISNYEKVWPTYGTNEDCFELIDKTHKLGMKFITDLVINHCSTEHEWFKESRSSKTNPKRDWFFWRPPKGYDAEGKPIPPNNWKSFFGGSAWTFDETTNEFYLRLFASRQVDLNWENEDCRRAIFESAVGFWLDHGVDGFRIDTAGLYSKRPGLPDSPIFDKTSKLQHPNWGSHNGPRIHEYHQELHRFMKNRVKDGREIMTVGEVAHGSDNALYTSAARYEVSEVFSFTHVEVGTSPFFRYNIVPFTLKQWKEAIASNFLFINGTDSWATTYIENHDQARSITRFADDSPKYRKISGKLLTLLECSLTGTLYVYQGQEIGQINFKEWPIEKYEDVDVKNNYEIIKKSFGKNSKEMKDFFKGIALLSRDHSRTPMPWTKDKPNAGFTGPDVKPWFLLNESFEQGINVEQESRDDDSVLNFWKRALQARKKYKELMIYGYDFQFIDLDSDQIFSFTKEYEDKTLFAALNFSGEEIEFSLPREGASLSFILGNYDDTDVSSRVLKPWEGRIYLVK

SMILES	IC50
C[C@@H]1O[C@@H](OC[C@H]2O[C@@H](Oc3c(-c4ccc(O)c(O)c4)oc4cc(O)cc(O)c4c3=O)[C@H](O)[C@@H](O)[C@@H]2O)[C@H](O)[C@H](O)[C@H]1O [flavonoid 1, rutin]	13.2 µM
O=c1c(O[C@@H]2O[C@H](CO)[C@@H](O)[C@H](O)[C@H]2O)c(-c2ccc(O)c(O)c2)oc2cc(O)cc(O)c12 [flavonoid 2, isoquercetin]	117 µM
